In EP4714953A1, “MELANOCORTIN 2-TYPE RECEPTOR ANTAGONIST” (Scohia Pharma, Inc., priority 2023, dated 2024):
Where a name gives a salt, the structure may show the parent alone.

Target: T1, human MC2R (Homo sapiens, UniProt Q01718)
T1 construct: host or cells: GeneBLAzer MC2R-CRE-bla CHO-K1 cells
Experiment: Measurement of human MC2R inhibitory activity using intracellular cAMP concentration as an indicator
Type: cell-based
Conditions: test compound at 1 µM; GeneBLAzer MC2R-CRE-bla CHO-K1 cells; ACTH (Human 1-24) final concentration 3 pM; intracellular cAMP by HTRF
Protocol: Experimental Example 1: Measurement of human MC2R inhibitory activity using intracellular cAMP concentration as an indicator
GeneBLAzer MC2R-CRE-bla CHO-K1 cells (Thermo Fisher Scientific) that had been cryopreserved in advance were thawed and suspended in a medium [Dulbecco's Modified Eagle Medium (Thermo Fisher Scientific) containing fetal bovine serum (10% (v/v), HyClone Laboratories), Non-Essential Amino Acids Solution (1/100 (w/w), Thermo Fisher Scientific), HEPES (25 mM, Thermo Fisher Scientific), Penicillin/Streptomycin (1/100 (w/w), Fujifilm Wako)]. After centrifuging the cell suspension, the supernatant was removed, the cells were suspended in D-PBS(-) (Fujifilm Wako), and the supernatant was removed again after centrifugation. The cells were resuspended in an assay buffer [Hank's Balanced Salt Solution (Thermo Fisher Scientific) containing HEPES pH 7.5 (10 mM, Thermo Fisher Scientific), fatty acid-free bovine serum albumin (0.01% (w/v), Sigma), IBMX (500 µM, Fujifilm Wako)] and added to a 384-well white plate (Greiner) at 1,500 cells/well. Then, the test compound prepared using the assay buffer was added, and after standing for 20 min, an assay buffer containing ACTH (Human 1-24) (Peptide Institute) was added (ACTH final concentration, 3 pM). After standing at room temperature for 30 min, the intracellular cAMP level was measured using cAMP Gs HiRange kit HTRF (PerkinElmer). The inhibition rate (%) of the compound against MC2R was calculated using the following formula. Inhibition rate (%) = […] [formula] • A: cAMP concentration calculated from wells containing 3 pM ACTH (1-24) • B: cAMP concentration calculated from wells without addition of 3 pM ACTH (1-24) • C: cAMP concentration calculated from wells containing 3 pM ACTH (1-24) and test compound at concentration determined in advance

T1 sequence (Q01718 whole entry): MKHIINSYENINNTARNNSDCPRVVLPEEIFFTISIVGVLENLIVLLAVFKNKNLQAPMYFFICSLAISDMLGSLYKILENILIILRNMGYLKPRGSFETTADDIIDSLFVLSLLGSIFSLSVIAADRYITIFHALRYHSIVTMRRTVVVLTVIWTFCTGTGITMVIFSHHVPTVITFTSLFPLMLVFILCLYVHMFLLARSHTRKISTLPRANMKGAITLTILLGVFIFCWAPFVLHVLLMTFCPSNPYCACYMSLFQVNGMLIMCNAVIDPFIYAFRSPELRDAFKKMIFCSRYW
T1 sequence (Q8TCY5 whole entry partner): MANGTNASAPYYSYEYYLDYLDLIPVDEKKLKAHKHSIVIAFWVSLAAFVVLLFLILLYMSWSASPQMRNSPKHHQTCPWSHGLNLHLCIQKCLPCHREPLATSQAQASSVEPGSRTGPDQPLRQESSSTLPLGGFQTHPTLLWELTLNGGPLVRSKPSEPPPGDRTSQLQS

Compared with `CCOc1ncccc1-c1ccc(N2CCN3C(=O)N(c4ccc(Cl)cc4C(F)(F)F)C[C@@H]3C2)c(C(=O)NC2CCNC2)n1` (stereo partly drawn) [Example 24, 3-[(8aS)-2-[4-chloro-2-(trifluoromethyl)phenyl]-3-oxo-5,6,8,8a-tetrahydro-1H-imidazo[1,5-a]pyrazin-7-yl]-6-(2-ethoxypyridin-3-yl)-N-pyrrolidin-3-ylpyridine-2-carboxamide 2hydrochloride], `CCOc1ncccc1-c1ccc(N2CCN3C(=O)N(c4ccc(Cl)cc4C(F)(F)F)C[C@@H]3C2)c(C(=O)NCCC2CCNCC2)n1` [Example 25, 3-[(8aS)-2-[4-chloro-2-(trifluoromethyl)phenyl]-3-oxo-5,6,8,8a-tetrahydro-1H-imidazo[1,5-a]pyrazin-7-yl]-6-(2-ethoxypyridin-3-yl)-N-(2-piperidin-4-ylethyl)pyridine-2-carboxamide 2 hydrochloride] is lower in “MC2R inhibition rate (% of inhibition)” value: 100% for the first, 99% for the second.

Same assay, conditions: test compound at 1 µM; GeneBLAzer MC2R-CRE-bla CHO-K1 cells; ACTH (Human 1-24) final concentration 3 pM; intracellular cAMP by HTRF; read-out: MC2R inhibition rate (% of inhibition)

First: CCOc1ncccc1-c1ccc(N2CCN3C(=O)N(c4ccc(Cl)cc4C(F)(F)F)C[C@@H]3C2)c(C(=O)NCCC2CCN(C(=O)OC(C)(C)C)CC2)n1 [Example 21, tert-butyl 4-[2-[[3-[(8aS)-2-[4-chloro-2-(trifluoromethyl)phenyl]-3-oxo-5,6,8,8a-tetrahydro-1H-imidazo[1,5-a]pyrazin-7-yl]-6-(2-ethoxypyridin-3-yl)pyridine-2-carbonyl]amino]ethyl]piperidine-1-carboxylate]
Second: CCOc1ncccc1-c1ccc(N2CCN3C(=O)N(c4ccc(Cl)cc4C(F)(F)F)C[C@@H]3C2)c(C(=O)N[C@@H]2CCN(C)C2)n1 [Example 23, 3-[(8aS)-2-[4-chloro-2-(trifluoromethyl)phenyl]-3-oxo-5,6,8,8a-tetrahydro-1H-imidazo[1,5-a]pyrazin-7-yl]-6-(2-ethoxypyridin-3-yl)-N-[(3R)-1-methylpyrrolidin-3-yl]pyridine-2-carboxamide]
The inhibition at 1 µM of the first is lower: 82% for the first, 100% for the second.

`CCOc1ncccc1-c1ccc(N2CCN3C(=O)N(c4ccc(Cl)cc4C(F)(F)F)C[C@@H]3C2)c(C(=O)NCCCn2cccn2)n1` [Example 22, 3-[(8aS)-2-[4-chloro-2-(trifluoromethyl)phenyl]-3-oxo-5,6,8,8a-tetrahydro-1H-imidazo[1,5-a]pyrazin-7-yl]-6-(2-ethoxypyridin-3-yl)-N-(3-pyrazol-1-ylpropyl)pyridine-2-carboxamide] and `CCOc1ncccc1-c1ccc(N2CCN3C(=O)N(c4ccc(Cl)cc4C(F)(F)F)C[C@@H]3C2)c(C(=O)NC2CCNC2)n1` (stereo partly drawn) [Example 28, 3-[(8aS)-2-[4-chloro-2-(trifluoromethyl)phenyl]-3-oxo-5,6,8,8a-tetrahydro-1H-imidazo[1,5-a]pyrazin-7-yl]-6-(2-ethoxypyridin-3-yl)-N-pyrrolidin-3-ylpyridine-2-carboxamide] are the same in inhibition at 1 µM: 100% for the first, 100% for the second.

`CCOc1ncccc1-c1ccc(N2C[C@H]3CN(c4ccc(Cl)cc4C(F)(F)F)C(=O)N3C[C@H]2CC)c(C(=O)NCCN(C)C)n1` [Example 26, 3-[(6R,8aS)-2-[4-chloro-2-(trifluoromethyl)phenyl]-6-ethyl-3-oxo-5,6,8,8a-tetrahydro-1H-imidazo[1,5-a]pyrazin-7-yl]-N-[2-(dimethylamino)ethyl]-6-(2-ethoxypyridin-3-yl)pyridine-2-carboxamide] and `CCOc1ncccc1-c1ccc(N2C[C@H]3CN(c4ccc(Cl)cc4C(F)(F)F)C(=O)N3C[C@H]2CC)c(C(=O)NC[C@@H](C)O)n1` [Example 33, 3-[(6R,8aS)-2-[4-chloro-2-(trifluoromethyl)phenyl]-6-ethyl-3-oxo-5,6,8,8a-tetrahydro-1H-imidazo[1,5-a]pyrazin-7-yl]-6-(2-ethoxypyridin-3-yl)-N-[(2R)-2-hydroxypropyl]pyridine-2-carboxamide] are the same in inhibition at 1 µM: 100% for the first, 100% for the second.

Compared with `CCOc1ncccc1-c1ccc(N2C[C@H]3CN(c4ccc(Cl)cc4C(F)(F)F)C(=O)N3C[C@H]2CC)c(C(N)=O)n1` [Example 27, 3-[(6R,8aS)-2-[4-chloro-2-(trifluoromethyl)phenyl]-6-ethyl-3-oxo-5,6,8,8a-tetrahydro-1H-imidazo[1,5-a]pyrazin-7-yl]-6-(2-ethoxypyridin-3-yl)pyridine-2-carboxamide], `CCOc1ncccc1-c1ccc(N2C[C@H]3CN(c4ccc(Cl)cc4C(F)(F)F)C(=O)N3C[C@H]2CC)c(C(=O)O)n1` [Example 38a, 3-[(6R,8aS)-2-[4-chloro-2-(trifluoromethyl)phenyl]-6-ethyl-3-oxo-5,6,8,8a-tetrahydro-1H-imidazo[1,5-a]pyrazin-7-yl]-6-(2-ethoxy-3-pyridyl)pyridine-2-carboxylic acid] is lower in inhibition at 1 µM: 100% for the first, 91% for the second.

`CCOc1ncccc1-c1ccc(N2C[C@H]3CN(c4ccc(Cl)cc4C(F)(F)F)C(=O)N3C[C@H]2CC)c(C(=O)NC2CNC(=O)C2)n1` (stereo partly drawn) [Example 29, 3-[(6R,8aS)-2-[4-chloro-2-(trifluoromethyl)phenyl]-6-ethyl-3-oxo-5,6,8,8a-tetrahydro-1H-imidazo[1,5-a]pyrazin-7-yl]-6-(2-ethoxypyridin-3-yl)-N-(5-oxopyrrolidin-3-yl)pyridine-2-carboxamide] and `CCOc1ncccc1-c1ccc(N2C[C@H]3CN(c4ccc(Cl)cc4C(F)(F)F)C(=O)N3C[C@H]2CC)c(C(=O)N[C@@H]2CNC(=O)C2)n1` [Example 39, 3-[(6R,8aS)-2-[4-chloro-2-(trifluoromethyl)phenyl]-6-ethyl-3-oxo-5,6,8,8a-tetrahydro-1H-imidazo[1,5-a]pyrazin-7-yl]-6-(2-ethoxypyridin-3-yl)-N-[(3S)-5-oxopyrrolidin-3-yl]pyridine-2-carboxamide] are the same in inhibition at 1 µM: 100% for the first, 100% for the second.

`CCOc1ncccc1-c1ccc(N2C[C@H]3CN(c4ccc(Cl)cc4C(F)(F)F)C(=O)N3C[C@H]2CC)c(C(=O)NCC2(O)CC2)n1` [Example 32, 3-[(6R,8aS)-2-[4-chloro-2-(trifluoromethyl)phenyl]-6-ethyl-3-oxo-5,6,8,8a-tetrahydro-1H-imidazo[1,5-a]pyrazin-7-yl]-6-(2-ethoxypyridin-3-yl)-N-[(1-hydroxycyclopropyl)methyl]pyridine-2-carboxamide] and `CCOc1ncccc1-c1ccc(N2C[C@H]3CN(c4ccc(Cl)cc4C(F)(F)F)C(=O)N3C[C@H]2CC)c(C(=O)NCC(C)(C)O)n1` [Example 35, 3-[(6R,8aS)-2-[4-chloro-2-(trifluoromethyl)phenyl]-6-ethyl-3-oxo-5,6,8,8a-tetrahydro-1H-imidazo[1,5-a]pyrazin-7-yl]-6-(2-ethoxypyridin-3-yl)-N-(2-hydroxy-2-methylpropyl)pyridine-2-carboxamide] are the same in inhibition at 1 µM: 100% for the first, 100% for the second.

`CCOc1ncccc1-c1ccc(N2C[C@H]3CN(c4ccc(Cl)cc4C(F)(F)F)C(=O)N3C[C@H]2CC)c(C(=O)NCCNC(C)=O)n1` [Example 36, N-(2-acetamidoethyl)-3-[(6R,8aS)-2-[4-chloro-2-(trifluoromethyl)phenyl]-6-ethyl-3-oxo-5,6,8,8a-tetrahydro-1H-imidazo[1,5-a]pyrazin-7-yl]-6-(2-ethoxypyridin-3-yl)pyridine-2-carboxamide] and `CCOc1ncccc1-c1ccc(N2C[C@H]3CN(c4ccc(Cl)cc4C(F)(F)F)C(=O)N3C[C@H]2CC)c(C(=O)N[C@H](C)C(=O)NC)n1` [Example 40, 3-[(6R,8aS)-2-[4-chloro-2-(trifluoromethyl)phenyl]-6-ethyl-3-oxo-5,6,8,8a-tetrahydro-1H-imidazo[1,5-a]pyrazin-7-yl]-6-(2-ethoxypyridin-3-yl)-N-[(2R)-1-(methylamino)-1-oxopropan-2-yl]pyridine-2-carboxamide] are the same in inhibition at 1 µM: 100% for the first, 100% for the second.

`CCOc1ncccc1-c1ccc(N2C[C@H]3CN(c4ccc(Cl)cc4C(F)(F)F)C(=O)N3C[C@H]2CC)c(C(=O)N[C@@H](C)C(=O)NC)n1` [Example 41, 3-[(6R,8aS)-2-[4-chloro-2-(trifluoromethyl)phenyl]-6-ethyl-3-oxo-5,6,8,8a-tetrahydro-1H-imidazo[1,5-a]pyrazin-7-yl]-6-(2-ethoxypyridin-3-yl)-N-[(2S)-1-(methylamino)-1-oxopropan-2-yl]pyridine-2-carboxamide] and `CCOc1ncccc1-c1ccc(N2C[C@H]3CN(c4ccc(Cl)cc4C(F)(F)F)C(=O)N3C[C@H]2CC)c(C(=O)NC2CC(=O)N(C)C2)n1` (stereo partly drawn) [Example 42, 3-[(6R,8aS)-2-[4-chloro-2-(trifluoromethyl)phenyl]-6-ethyl-3-oxo-5,6,8,8a-tetrahydro-1H-imidazo[1,5-a]pyrazin-7-yl]-6-(2-ethoxypyridin-3-yl)-N-(1-methyl-5-oxopyrrolidin-3-yl)pyridine-2-carboxamide] are the same in inhibition at 1 µM: 100% for the first, 100% for the second.
